The text below walks through data of patent US5492821A, “Stabilized polyacrylic saccharide protein conjugates” (Cargill, Inc., priority 1991, dated 1996).

Type in all cases: biochemical
Details in all cases: 0.05M sodium phosphate buffer at pH 8 containing 10% methanol

For assay [1], the system named is trypsin (native). Nature of the assay: Km and kcat of enzyme, Table 1. The procedure: (§1) The yield of the active enzyme was determined by comparison of the relative activity of the native trypsin and the trypsin-polymer conjugate for N-succinyl-Ala-Ala-Pro-Phe p-nitroanilide as the substrate in 0.05M sodium phosphate buffer at pH 8 containing 10% methanol.
For assay [2], the system named is CPC-trypsin (poly(2-N-methacrylamido-2-deoxy-D-glucose)-trypsin conjugate). Nature of the assay: Km and kcat of enzyme-polymer conjugate, Table 1. The procedure: A protein polymer conjugate of poly(2-N-methacrylamido-2-deoxy-D-glucose) and trypsin was prepared by the reductive amination procedure as shown below: [drawing 23] To 20 mL of a 0.05M sodium borate solution at pH 8 was added 148 mg (3×10^-8 mole) of poly(2-N-methacrylamido-2-deoxy-D-glucose) with 30 mg (1.2×10^-6 mole) of trypsin and 10 mg ([…]) of purified sodium cyanoborohydride. The solution was placed in a shaking water bath at 60 oscillations/min at 35° C. for 48 hours. The progress of the reaction was followed by gel filtration chromatography using 0.05M sodium borate as the eluent on Sephacryl S-200 with a flow rate of 1.5 mL/min. Dialysis of the solution using Spectra Por CE 100K MWCO membrane against 2×250 mL of 0.05M sodium borate at pH 8 for 14 hours gave a 42% yield of active stabilized trypsin-polymer conjugate.
as §1

The target of assay [3] is α-chymotrypsin (native) (Bos taurus, UniProt P00766). Briefly: Km and kcat of enzyme, Table 1. The procedure:
as §1
The procedure of EXAMPLE 8 (a) (i) was repeated in every essential detail except that α-chymotrypsin was used instead of trypsin.

For orientation: Km means the substrate concentration at which the rate is half of its maximum. One may read the kcat as the number of substrate molecules converted per active site and unit of time at saturation.

Numbered stars: 1 amine (or outer) side, 2 acyl side, 3 side chain; on linkers, the order of the positions; unused ones are H or OH. Peptide text beside a SMILES is read from it. * marks the point of attachment. pNA = O=[N+]([O-])c1ccc(N*)cc1; Suc = O=C(CCC(=O)[*:2])[*:1]

Regarding `C[C@H](NC(=O)CCC(=O)O)C(=O)N[C@@H](C)C(=O)N1CCC[C@H]1C(=O)N[C@@H](Cc1ccccc1)C(=O)Nc1ccc([N+](=O)[O-])cc1` [N-succinyl-Ala-Ala-Pro-Phe p-nitroanilide] (Suc-AAPF-pNA), the results for the Km in assay [1], in assay [2] and in assay [3] were 760 µM, 890 µM and 40 µM, respectively. Besides, the kcat in assay [1] is 0.9 s⁻¹; in assay [2], 1.2 s⁻¹; in assay [3], 33 s⁻¹.
